Reference: patent US10093630B2, “Pyrazole compounds and methods of making and using same” (ABIDE THERAPEUTICS, INC., priority 2014, dated 2018)

What was measured:
Experiment in all cases: In vitro competitive activity-based protein profiling (gel-based, FP-Rh or HT-01 probe)
Format in all cases: biochemical
ABHD6 = molecular target: T1, ABHD6 (Mus musculus, UniProt Q8R2Y0); settings: for inhibition at 1 µM: 1 μM inhibitor, read-out: % Inhibition at 1 μM, C = ABHD6; for inhibition at 10 µM: 10 μM inhibitor, read-out: % Inhibition at 10 μM, C = ABHD6; for IC50: mouse brain membrane fraction or cell lysates, 30 min preincubation at 37° C., read-out: Mouse (IC50 value, nM) ABHD6
T1 construct: Proteomes (mouse brain membrane fraction or cell lysates); from tissue; host or cells: mouse brain membrane fraction (or cell lysates, not specified)
T1 sequence (Q8R2Y0 1-336): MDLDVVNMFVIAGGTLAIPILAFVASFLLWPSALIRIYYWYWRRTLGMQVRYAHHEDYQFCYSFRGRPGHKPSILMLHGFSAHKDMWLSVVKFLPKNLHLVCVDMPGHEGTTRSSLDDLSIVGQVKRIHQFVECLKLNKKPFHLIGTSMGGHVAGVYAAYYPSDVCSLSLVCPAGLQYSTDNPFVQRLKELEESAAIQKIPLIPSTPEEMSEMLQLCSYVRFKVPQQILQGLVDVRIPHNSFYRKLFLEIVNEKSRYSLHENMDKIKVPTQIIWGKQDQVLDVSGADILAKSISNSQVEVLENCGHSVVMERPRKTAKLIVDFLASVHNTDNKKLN
Procedure, shortened: (§1)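 Mouse brain membrane proteome or cell lysate (1.0 mg/mL protein) was preincubated with inhibitor at varying concentrations for 30 min at 37° C, then labelled with FP-Rh or HT-01 for 30 min at 37° C. After SDS-PAGE, residual hydrolase activity was quantified as in-gel fluorescence of each band.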

FAAH = molecular target: T2, FAAH (Mus musculus, UniProt O08914); settings: for inhibition at 10 µM: 10 μM inhibitor, read-out: % Inhibition at 10 μM, B = FAAH; for inhibition at 1 µM: 1 μM inhibitor, read-out: % Inhibition at 1 μM, B = FAAH; for IC50: mouse brain membrane fraction or cell lysates, 30 min preincubation at 37° C., read-out: Mouse (IC50 value, nM) FAAH
T2 construct: Proteomes (mouse brain membrane fraction or cell lysates); from tissue; host or cells: mouse brain membrane fraction (or cell lysates, not specified)
T2 sequence (O08914 1-579): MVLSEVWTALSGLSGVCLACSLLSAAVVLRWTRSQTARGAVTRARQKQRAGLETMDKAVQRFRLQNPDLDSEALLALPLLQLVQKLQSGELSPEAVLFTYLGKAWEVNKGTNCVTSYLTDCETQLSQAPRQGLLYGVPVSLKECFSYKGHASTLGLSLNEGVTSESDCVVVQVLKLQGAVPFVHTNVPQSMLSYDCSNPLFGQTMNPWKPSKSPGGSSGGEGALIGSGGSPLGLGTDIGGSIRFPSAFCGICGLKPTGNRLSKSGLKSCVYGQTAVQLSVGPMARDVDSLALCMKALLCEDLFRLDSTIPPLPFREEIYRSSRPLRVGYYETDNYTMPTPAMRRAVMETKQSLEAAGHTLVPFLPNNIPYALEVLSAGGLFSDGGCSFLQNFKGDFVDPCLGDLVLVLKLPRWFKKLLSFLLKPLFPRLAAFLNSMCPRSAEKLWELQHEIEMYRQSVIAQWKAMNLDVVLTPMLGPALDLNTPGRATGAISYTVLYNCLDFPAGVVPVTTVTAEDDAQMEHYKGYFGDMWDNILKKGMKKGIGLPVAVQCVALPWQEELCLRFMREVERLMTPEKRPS
Procedure, shortened: as §1

MAGL = molecular target: T3, MAGL (Mus musculus, UniProt O35678); settings: for inhibition at 10 µM: 10 μM inhibitor; for inhibition at 1 µM: 1 μM inhibitor; for IC50: mouse brain membrane fraction or cell lysates, 30 min preincubation at 37° C., read-out: Mouse (IC50 value, nM) MAGL
T3 construct: Proteomes (mouse brain membrane fraction or cell lysates); from tissue; host or cells: mouse brain membrane fraction (or cell lysates, not specified)
T3 sequence (O35678 1-303): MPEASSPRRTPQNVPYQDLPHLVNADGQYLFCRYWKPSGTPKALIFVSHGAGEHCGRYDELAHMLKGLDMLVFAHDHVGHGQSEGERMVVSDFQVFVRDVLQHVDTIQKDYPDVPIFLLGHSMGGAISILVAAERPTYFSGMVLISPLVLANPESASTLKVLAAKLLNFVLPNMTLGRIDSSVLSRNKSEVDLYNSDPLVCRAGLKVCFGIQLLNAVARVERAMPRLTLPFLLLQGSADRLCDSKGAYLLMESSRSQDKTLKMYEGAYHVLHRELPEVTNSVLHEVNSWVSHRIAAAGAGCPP
Procedure, shortened: as §1

PLA2G7 = molecular target: T4, PLA2G7 (Mus musculus, UniProt Q60963); settings: for inhibition at 1 µM: 1 μM inhibitor, read-out: % Inhibition at 1 μM, D = PLA2G7; for inhibition at 10 µM: 10 μM inhibitor, read-out: % Inhibition at 10 μM, D = PLA2G7
T4 construct: Proteomes (mouse brain membrane fraction or cell lysates); from tissue; host or cells: mouse brain membrane fraction (or cell lysates, not specified)
T4 sequence (Q60963 22-440): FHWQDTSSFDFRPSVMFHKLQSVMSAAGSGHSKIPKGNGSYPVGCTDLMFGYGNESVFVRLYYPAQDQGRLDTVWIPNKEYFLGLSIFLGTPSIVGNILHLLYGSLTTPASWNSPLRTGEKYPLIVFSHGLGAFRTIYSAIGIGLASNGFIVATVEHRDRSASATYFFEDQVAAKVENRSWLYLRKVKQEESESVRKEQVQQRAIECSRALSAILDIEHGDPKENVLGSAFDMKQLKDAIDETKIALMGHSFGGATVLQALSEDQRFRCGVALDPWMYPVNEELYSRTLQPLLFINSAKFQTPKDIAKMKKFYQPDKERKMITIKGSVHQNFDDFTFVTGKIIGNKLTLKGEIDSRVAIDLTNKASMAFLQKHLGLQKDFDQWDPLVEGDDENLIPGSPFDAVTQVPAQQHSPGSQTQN
Procedure, shortened: as §1

Row | SMILES | inhibition at 1 µM (ABHD6) [%] | inhibition at 10 µM (ABHD6) [%] | inhibition at 10 µM (FAAH) [%] | inhibition at 10 µM (MAGL) [%] | inhibition at 1 µM (PLA2G7) [%] | inhibition at 10 µM (PLA2G7) [%] | IC50 (ABHD6) [nM] | inhibition at 1 µM (FAAH) [%] | IC50 (FAAH) [nM] | inhibition at 1 µM (MAGL) [%] | IC50 (MAGL) [nM]
1 | O=C(c1cnn(C(=O)N2CCN(Cc3cncnc3)CC2)c1)N1CCC1 [Example 92, Azetidin-1-yl(1-(4-(pyrimidin-5-ylmethyl)piperazine-1-carbonyl)-1H-pyrazol-4-yl)methanone] | < 25 | > 75 | < 25 | < 25 | < 25 | > 75 | – | – | – | – | –
2 | Cc1cc(-c2ccccc2)ccc1CN1CCN(C(=O)n2cc(C(=O)N3CCC3)cn2)CC1 [Example 93, Azetidin-1-yl(1-(4-((3-methyl-[1,1′-biphenyl]-4-yl)methyl)piperazine-1-carbonyl)-1H-pyrazol-4-yl)methanone] | > 75 | > 75 | > 75 | > 75 | < 25 | > 75 | 100 to 1000 | > 75 | < 100 | > 75 | 100 to 1000
3 | O=C(N1CCCC1)n1cc(-c2ccccc2)cn1 [Example 103, (4-Phenyl-1H-pyrazol-1-yl)(pyrrolidin-1-yl)methanone] | – | < 25 | > 75 | < 25 | – | > 75 | – | – | – | – | –
4 | O=C(N1CCCC1)n1cc(-c2ccc(-c3ccccc3)cc2)cn1 [Example 106, (4-([1,1′-Biphenyl]-4-yl)-1H-pyrazol-1-yl)(pyrrolidin-1-yl)methanone] | 25 to 75 | > 75 | < 25 | < 25 | < 25 | 25 to 75 | – | – | – | – | –
5 | COc1ccccc1-c1ccc(-c2cnn(C(=O)N3CCCC3)c2)cc1 [Example 107, (4-(2′-Methoxy-[1,1′-biphenyl]-4-yl)-1H-pyrazol-1-yl)(pyrrolidin-1-yl)methanone] | > 75 | > 75 | < 25 | > 75 | < 25 | 25 to 75 | 100 to 1000 | < 25 | – | < 25 | –
6 | O=C(N1CCN(Cc2c(N3CCCC3)cccc2C(F)(F)F)CC1)n1cc(C(F)(F)F)cn1 [Example 110, (4-(2-(Pyrrolidin-1-yl)-6-(trifluoromethyl)benzyl)piperazin-1-yl)(4-(trifluoromethyl)-1H-pyrazol-1-yl)methanone] | > 75 | > 75 | > 75 | > 75 | > 75 | > 75 | < 100 | < 25 | > 1000 | > 75 | < 100
7 | CC(C)c1cnn(C(=O)N2CCN(Cc3c(N4CCCC4)cccc3C(F)(F)F)CC2)c1 [Example 112, (4-Isopropyl-1H-pyrazol-1-yl)(4-(2-(pyrrolidin-1-yl)-6-(trifluoromethyl)benzyl)piperazin-1-yl)methanone] | > 75 | > 75 | < 25 | > 75 | < 25 | > 75 | 100 to 1000 | < 25 | – | < 25 | –
8 | O=C(N1CCN(Cc2ccc(C(F)(F)F)cc2N2CCCC2)CC1)n1cc(-c2ccccc2C(F)(F)F)cn1 [Example 115, (4-(2-(Pyrrolidin-1-yl)-4-(trifluoromethyl)benzyl)piperazin-1-yl)(4-(2-(trifluoromethyl)phenyl)-1H-pyrazol-1-yl)methanone] | > 75 | 25 to 75 | 25 to 75 | 25 to 75 | 25 to 75 | > 75 | 100 to 1000 | < 25 | – | < 25 | –
9 | O=C(N1CCN(Cc2ccc(C(F)(F)F)cc2N2CCCC2)CC1)n1cc(-c2ccc(C(F)(F)F)cc2)cn1 [Example 116, (4-(2-(Pyrrolidin-1-yl)-4-(trifluoromethyl)benzyl)piperazin-1-yl)(4-(4-(trifluoromethyl)phenyl)-1H-pyrazol-1-yl)methanone] | > 75 | > 75 | < 25 | > 75 | – | > 75 | > 1000 | < 25 | – | 25 to 75 | –
10 | Cc1ccccc1-c1cnn(C(=O)N2CCN(C(c3ccc(Cl)cc3)c3ccc(Cl)cc3)CC2)c1 [Example 122, (4-(Bis(4-chlorophenyl)methyl)piperazin-1-yl)(4-(o-tolyl)-1H-pyrazol-1-yl)methanone] | < 25 | > 75 | < 25 | 25 to 75 | 25 to 75 | > 75 | – | – | – | – | –
11 | O=C(N1CCN(C(c2ccc(Cl)cc2)c2ccc(Cl)cc2)CC1)n1cc(-c2ccccc2C(F)(F)F)cn1 [Example 123, (4-(Bis(4-chlorophenyl)methyl)piperazin-1-yl)(4-(2-(trifluoromethyl)phenyl)-1H-pyrazol-1-yl)methanone] | 25 to 75 | > 75 | < 25 | 25 to 75 | < 25 | 25 to 75 | – | – | – | – | –
12 | O=C(N1CCN(C(c2ccc(Cl)cc2)c2ccc(Cl)cc2)CC1)n1cc(-c2ccc(C(F)(F)F)cc2)cn1 [Example 124, (4-(Bis(4-chlorophenyl)methyl)piperazin-1-yl)(4-(4-(trifluoromethyl)phenyl)-1H-pyrazol-1-yl)methanone] | > 75 | > 75 | < 25 | 25 to 75 | 25 to 75 | > 75 | – | – | – | – | –
13 | CCN(Cc1ccccc1OC)C(=O)n1cc(Cl)cn1 [Example 127, 4-Chloro-N-ethyl-N-(2-methoxybenzyl)-1H-pyrazole-1-carboxamide] | < 25 | > 75 | > 75 | > 75 | < 25 | < 25 | – | < 25 | – | < 25 | –
14 | CCN(Cc1cccc(OC)c1)C(=O)n1cc(Cl)cn1 [Example 128, 4-Chloro-N-ethyl-N-(3-methoxybenzyl)-1H-pyrazole-1-carboxamide] | – | > 75 | > 75 | > 75 | – | < 25 | > 1000 | – | 100 to 1000 | – | > 1000
